US9579325B2, “Modulators of TNF-α signaling” (Genzyme Corporation, priority 2000, dated 2017)

Columns and labels:
C57/BL mouse = assay: Sepsis model: murine LPS-d-galactosamine model; assay type: in vivo; conditions: 200 mg/kg intraperitoneally one hour before induction; prevention of mortality over three days
Method: Sepsis was induced in the C57/BL mouse by the intravenous injection of 20 ng of lipopolysaccharide/animal plus 20 mgs d-galactosamine/animal. Inhibition was measured as the prevention of mortality over a three day period. Compounds were administered intraperitoneally in 10% cremophore/10% ethanol/80% normal saline one hour before induction.

L929 cells = assay: TNF High Throughput Screen (TNF-α driven apoptosis assay); assay type: cell-based, mouse; conditions: Mus musculus, human TNF-α + actinomycin D, read-out: TNFα IC50
Procedure, shortened: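 Mouse L929 cells were pretreated with compound for 2 hours, then given human TNF-α plus actinomycin D (40 μg/ml final) overnight. Surviving cells were stained with crystal violet, solubilised in methanol and read at 595 nm. Values are % inhibition at 1 μM (0 = TNF alone, 100 = no TNF) or IC50 from sigmoidal fits of dilution series.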

male rats = assay: Inflammatory Bowel Disease model: rat DNBS distal colitis; assay type: in vivo; conditions: 100 mg/kg orally, 7 doses
Method: Groups of three male rats weighing 150+/−10 g and fasted for 24 hours were used. Distal colitis was induced by intracolonic instillation of 0.5 ml/rat DNBS (2,4-dinitrobenzene sulfonic acid, 60 mg/ml in ethanol 30%) after which air (2 ml) was gently injected through the cannula to ensure that the solution remains in the colon. A test compound was administered orally 24 and 2 hours before DNBS-instillation and then daily for 5 days in a total of 7 doses. The animals were sacrificed 24 hours after the final dose of test compound administration and each colon was removed and weighed.

SJL mouse strain = assay: Experimental Allergic Encephalitis (murine model of multiple sclerosis); assay type: in vivo
Method: SJL mouse strain were immunized subcutaneously with proteolipid peptide amino acid residues 139-151 in Complete Freund's Adjuvant. Pertussis toxin was injected intravenously on day 1 and 3 post-induction. Weight loss occurred at day 7 post-immunization with paralysis ensuing between days 9 and 14 post-immunization.

## N#Cc1cccc(C(C(=O)NCC(c2ccccc2)c2ccccc2)N(CCc2c[nH]cn2)C(=O)c2ccccc2C(=O)c2ccccc2)c1 (stereo not drawn) [Compound 44]
C57/BL mouse
  Sepsis: Murine LPS-d-galactosamine model % inhibition: 33 +/− 1 @ 200%
L929 cells
  IC50: 410 nM
Male rats
  Inflammatory Bowel Disease: Rat DNBS model % inhibition of colonic weight gain: 44 +/− 8 @ 100 mg/kg %
SJL mouse strain; Induction regimen, 15 mgs/kg/day/i.p. from day 1-21, P = 0.06
  % inhibition of disease: 44.0%
SJL mouse strain; Induction regimen, 15 mgs/kg/day/i.p. from day 1-21, control 3.35
  activity disease severity score (ADSS) at last day of dosing, treated (vs. control): 1.9/3.35
SJL mouse strain; Induction regimen, 15 mgs/kg/day/i.p. from day 1-21, controls 50
  % Survival of treated (vs. % survival of controls): 75 vs. 50%
SJL mouse strain; Induction regimen, 75 mgs/kg/day/i.p. from day 1-21, control 3.35
  activity disease severity score (ADSS) at last day of dosing, treated (vs. control): 0.8/3.35
SJL mouse strain; Induction regimen, 75 mgs/kg/day/i.p. from day 1-21, controls 50
  % Survival of treated (vs. % survival of controls): 100 vs. 50%
SJL mouse strain; Induction regimen, 75 mgs/kg/day/i.p. from day 1-21, p = 0.001
  % inhibition of disease: 75.7%
SJL mouse strain; Oral therapeutic regimen, 75 mgs/kg/day/i.p. from day 7-28, control 4.4
  activity disease severity score (ADSS) at last day of dosing, treated (vs. control): 2.2/4.4
SJL mouse strain; Oral therapeutic regimen, 75 mgs/kg/day/i.p. from day 7-28, controls 20
  % Survival of treated (vs. % survival of controls): 89 vs. 20%
SJL mouse strain; Oral therapeutic regimen, 75 mgs/kg/day/i.p. from day 7-28, p = 0.002
  % inhibition of disease: 50%
SJL mouse strain; Therapeutic regimen, 15 mgs/kg/day/i.p. from day 7-21, control 4.6
  activity disease severity score (ADSS) at last day of dosing, treated (vs. control): 2.6/4.6
SJL mouse strain; Therapeutic regimen, 15 mgs/kg/day/i.p. from day 7-21, controls 11
  % Survival of treated (vs. % survival of controls): 70 vs. 11%
SJL mouse strain; Therapeutic regimen, 15 mgs/kg/day/i.p. from day 7-21, p = 0.08
  % inhibition of disease: 43.5%
SJL mouse strain; Therapeutic regimen, 75 mgs/kg/day/i.p. from day 7-21, control 4.6
  activity disease severity score (ADSS) at last day of dosing, treated (vs. control): 1.1/4.6
SJL mouse strain; Therapeutic regimen, 75 mgs/kg/day/i.p. from day 7-21, controls 11
  % Survival of treated (vs. % survival of controls): 100 vs. 11%
SJL mouse strain; Therapeutic regimen, 75 mgs/kg/day/i.p. from day 7-21, p = 0.001
  % inhibition of disease: 76.1%
